Test results published in ChEMBL document CHEMBL1821553, “Yojironins E-I, prenylated acylphloroglucinols from Hypericum yojiroanum” (Bioorg Med Chem Lett, 2011).
In brackets after ≈: the same amount, converted by molar mass.

Assays:
P388 = assay: Cytotoxicity against mouse P388 cells; format: functional, cell-based
Aspergillus niger = assay: Antimicrobial activity against Aspergillus niger; format: functional, organism-based
Candida albicans = assay: Antimicrobial activity against Candida albicans; format: functional, organism-based
KB = assay: Cytotoxicity against human KB cells; format: functional, cell-based
[1] = system: Trichophyton mentagrophytes; assay: Antimicrobial activity against Trichophyton mentagrophytes; format: functional, organism-based
Cryptococcus neoformans = assay: Antimicrobial activity against Cryptococcus neoformans; format: functional, organism-based

Q: `CCC(C)C(=O)C1=C(O)C(C)=C2O[C@@H](C(C)(C)O)C[C@@]2(C/C=C(\C)CCC=C(C)C)C1=O` (stereo partly specified) [YOJIRONIN E] was tested. Which IC50 (P388) did it give?
A: Its IC50 is 3.7 µg/mL (≈ 8.32 µM).

Q: And the IC50 (Aspergillus niger)?
A: Its IC50 is 16 µg/mL (≈ 36 µM).

Q: And the IC50 (Candida albicans)?
A: Its IC50 is 4 µg/mL (≈ 9 µM).

Q: What about the IC50 (KB) of the same compound?
A: The IC50 was 5 µg/mL (≈ 11.2 µM).

Q: What about the IC50 [1] of the same compound?
A: The IC50 was 4 µg/mL (≈ 9 µM).

Q: And the IC50 (Cryptococcus neoformans)?
A: Its IC50 is 4 µg/mL (≈ 9 µM).
